The record followed here is patent US10487078B2, “Compositions and methods of targeting mutant K-RAS” (NantBio, Inc., priority 2015, dated 2019).

The target of one experiment is K-ras G12D (Homo sapiens, UniProt P01116, G12D). In words: G-LISA Ras activation assay, 293H cells transfected with G12D mutant. Format: cell-based. The conditions noted are these: 1 hour treatment. The procedure: (§1) 293H cells were seeded in 6-wells at 0.6×10^6 cells per well and transfected next day with 5 μg of Ras wild-type, or G12C, G12D or G12V mutant DNA plasmid vector using transfection reagent Lipofectamine 3000. Next day cells were treated with 3.125-50 μM of Ras compounds for 1 hour. Wild-type transfected cells were subsequently treated with 100 ng/ml EGF for 2 minutes. Cells were washed once in ice-cold PBS, lysed in complete lysis buffer on ice, and processed by G-LISA according to Cytoskeleton protocol.
(§2) In-cell selectivity of the compounds presented herein against a specific K-ras mutant form can also be tested as shown in the following exemplary experiment. 293H cells were seeded in 6-wells and transfected next day with 5 μg of Ras wild-type, or G12C, G12D or G12V mutant DNA plasmid vector. Next day cells were treated with 3.125-50 μM of Ras compounds for 1 hour. Wild-type transfected cells were subsequently treated with 100 ng/ml EGF for 2 minutes. Cells were washed once in ice-cold PBS, lysed in complete lysis buffer on ice, and processed by G-LISA according to Cytoskeleton protocol. FIG. 1 depicts exemplary results.
as §1, with “In still further experiments, the inventors tested selected compounds in a G-LISA assay to compare IC50 values for wild-type and various mutant K-Ras (G12D, G12V) using the following general protocol: 293H” for “293H”

In another experiment the target is K-ras wild-type (GTP) (Homo sapiens, UniProt P01116). Briefly: SPR assay (surface plasmon resonance). The format is binding. As to conditions: 25° C., 8% DMSO. Here is the method: (§3) Selected compounds were also tested for selective binding to wild type and mutant forms of K-ras in the active and non-active state using surface plasmon resonance, and exemplary results are shown in Table 4.
(§4) The running buffer in all surface plasmon resonance experiments was 10 mM HEPES pH 7.4, 150 mM NaCl, 0.1% (v/v) Tween-20, 1 mM MgCl2, 8% DMSO. Experiments were carried out on the SensiQ Pioneer optical biosensor. The flow rate was set at 50 μL/min and the temperature was 25° C. kRAS protein was immobilized to the Nickel-NTA charged surface of the SensiQ HisCap chip (sensiqtech.com) giving a yield of 4000 RU. Small molecules were prepared in 100% DMSO and further diluted to 8% DMSO in running buffer. The small molecules were injected using the Taylor diffusion gradient injection mode (OneStep®, see e.g., Evaluation of Taylor dispersion injections: Determining kinetic/affinity interaction constants and diffusion coefficients in label-free biosensing, John G. Quinn, Analytical Biochemistry (2011)). Buffer blanks were injected for double referencing purposes. Data processing and model fitting were performed using Qdat.

Another experiment addresses K-ras G12D (GTP) (Homo sapiens, UniProt P01116, G12D). Briefly: SPR assay (surface plasmon resonance). As to conditions: 25° C., 8% DMSO. Format: binding. Here is the method: as §3, §4
On the technique in general: In SPR one partner is held on a chip, and binding of the other changes the refractive index at the surface.

In a further experiment the target is K-ras G12V (GTP) (Homo sapiens, UniProt P01116, G12V). Briefly: SPR assay (surface plasmon resonance). Format: binding. The conditions noted are these: 25° C., 8% DMSO. The procedure:
as §3, §4

A further experiment has as its target K-Ras wild-type (Homo sapiens, UniProt P01116). Briefly: G-LISA Ras activation assay, 293H cells transfected with Ras wild-type, EGF-stimulated. Format: cell-based. As to conditions: Table 5; IC50, 293H transfected, 1 hour treatment, 100 ng/ml EGF; read-out: G-LISA (wild type). The procedure: as §1, §2
as §1, with “In still further experiments, the inventors tested selected compounds in a G-LISA assay to compare IC50 values for wild-type and various mutant K-Ras (G12D, G12V) using the following general protocol: 293H” for “293H”

[1] abbreviates: Table 1, G-LISA, 293H transfected, read-out: IC50 (μM) G12D.
[2] abbreviates: Table 5, IC50, 293H transfected, read-out: G-LISA (G12D).

The structures appear in SMILES notation. Where two headings read alike, the source gives them in different places.

Usually Kd stands for the constant that tells how readily two partners part at equilibrium. Take `Cc1nc(C)c(C(=O)Nc2nc(-c3ccc4c(c3)CC(=O)N4)cs2)s1` [Compound 4639]: the IC50 at K-ras G12D (setting [1]) and on K-ras G12D (setting [2]) was greater than 25 µM each time. At K-ras wild-type (GTP), the affinity, expressed as Kd, was 6.4 µM. The “SPR Assay Wild-type (GTP) Rmax” value on K-ras wild-type (GTP) is on record as “Rmax = 14.6 ± 0.1”.

Regarding `O=C1CCc2cc(-c3csc(NC(=O)c4scnc4-c4ccccc4)n3)ccc2N1` [Compound 4800], the IC50 on K-ras G12D (setting [1]) and at K-ras G12D (setting [2]) was greater than 25 µM in each case. For the same molecule, the results for the Kd at K-ras G12D (GTP) and on K-ras G12V (GTP) were 27.2 µM and 15.2 µM, respectively. Further, the “SPR Assay G12D (GTP) Rmax” value on K-ras G12D (GTP) is reported as “Rmax = 389 ± 1”. In addition, on K-ras G12V (GTP), the “SPR Assay G12V (GTP) Rmax” value is reported as “Rmax = 57.1 ± 0.2”.

Consider `Cc1nc(C)c(C(=O)Nc2nc(-c3ccc4c(c3)CCC(=O)N4)cs2)[nH]1` [Compound 4805], for which the results for the IC50 at K-Ras wild-type, on K-ras G12D (setting [1]) and at K-ras G12D (setting [2]) were 7 µM, greater than 25 µM and 187 µM, respectively. Also, the Kd on K-ras G12D (GTP) is 570 µM; on K-ras G12V (GTP), 12.1 µM. Besides, the “SPR Assay G12D (GTP) Rmax” value at K-ras G12D (GTP) was “Rmax = 219 ± 5”. For the same molecule, the “SPR Assay G12V (GTP) Rmax” value on K-ras G12V (GTP) was “Rmax = 100.3 ± 0.2”.
